The target of one test is T1, human TLR8 (Homo sapiens, UniProt Q9NR97).
T1 construct: expressed in transfected cells
T1 sequence (Q9NR97 27-1041): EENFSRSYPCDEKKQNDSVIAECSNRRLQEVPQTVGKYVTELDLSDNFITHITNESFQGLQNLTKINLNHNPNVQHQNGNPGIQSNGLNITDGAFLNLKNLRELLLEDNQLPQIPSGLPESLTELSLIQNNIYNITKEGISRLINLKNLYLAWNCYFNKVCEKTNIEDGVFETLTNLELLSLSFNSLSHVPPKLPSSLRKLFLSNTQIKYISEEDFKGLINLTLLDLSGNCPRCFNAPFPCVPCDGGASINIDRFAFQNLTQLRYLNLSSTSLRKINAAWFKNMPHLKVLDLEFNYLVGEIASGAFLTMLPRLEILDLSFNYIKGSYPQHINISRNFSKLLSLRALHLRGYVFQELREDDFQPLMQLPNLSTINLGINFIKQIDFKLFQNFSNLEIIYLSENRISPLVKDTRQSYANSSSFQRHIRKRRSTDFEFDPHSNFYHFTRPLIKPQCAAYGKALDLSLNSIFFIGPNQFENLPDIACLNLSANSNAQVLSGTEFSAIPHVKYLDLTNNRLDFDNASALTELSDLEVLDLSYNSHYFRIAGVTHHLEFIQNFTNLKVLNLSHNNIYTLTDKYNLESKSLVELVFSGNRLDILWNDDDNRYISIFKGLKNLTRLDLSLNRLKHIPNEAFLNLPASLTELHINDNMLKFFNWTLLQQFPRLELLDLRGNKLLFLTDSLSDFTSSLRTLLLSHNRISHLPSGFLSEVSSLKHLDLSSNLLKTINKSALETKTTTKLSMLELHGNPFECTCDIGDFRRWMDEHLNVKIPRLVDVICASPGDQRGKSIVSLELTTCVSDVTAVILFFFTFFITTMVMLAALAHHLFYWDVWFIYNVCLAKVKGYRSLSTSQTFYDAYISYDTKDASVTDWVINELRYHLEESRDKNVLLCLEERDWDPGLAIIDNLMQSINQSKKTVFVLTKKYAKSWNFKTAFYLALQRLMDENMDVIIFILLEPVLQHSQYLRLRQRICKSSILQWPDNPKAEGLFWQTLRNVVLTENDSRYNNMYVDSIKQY
Put plainly: HEK-Blue hTLR8 SEAP reporter gene inhibition assay. The test is classed as cell-based. To be noted: hTLR8 HEK-Blue cells, TLR8 ligand 10 µM, 20 hours, SEAP by Quanti-blue; class symbols; read-out: HEK-Blue hTLR8 IC50. On the procedure:
(§1) HEK-Blue cells with stable expression of human TLR7 or TLR8 were used in the evaluation of inhibitory activity of compounds in the present invention against TLR7 or TLR8, by using its ability to induce the SEAP reporting gene under the control of the fusion of IFN-β minimum promoters into five NF-κB and ap-1 binding sites, as follows: hTLR7 HEK-Blue cells (Invivogen, 80, 000 cells per well) or hTLR8 HEK-Blue cells (60, 000 cells per well) were added to a 96-well cell culture plate. A solution of the testing compounds were added to each well, with the final concentration of tested compounds in the medium ranged from 0.001 to 36 µM and the culture was incubated for 15 minutes. M5049 was used as positive controls in the testing.
(§2) Then a TLR7 ligand (Gardiquimod, purchased from MedChemExpress, with final concentration of ligand in cell culture medium kept at 10 µM) or a TLR8 ligand (purchased from MedChemExpress with final concentration in cell culture media at 10 µM) and the culture was incubated for 20 hours. According to the manufacturer's instructions, a HEK-Blue reagent Quanti-blue (Invivogen) was used to detect the SEAP levels in cell cultures. The half […] concentration or IC50 was calculated by using GraphPad Prism. […] Table 1: Activities of examples in this invention to hTLR7/8 in HEK-Blue Cells
Background: Reporter assays use an easily measured gene product as a stand-in for the process of interest.
With `C[C@@H]1CN(c2ccc(C#N)n3ncc(F)c23)Cc2c3c(nn21)CC(N)CCC3` (stereo partly drawn) [Example I-214, 4-((4R)-8-amino-4-methyl-1,3,4,7,8,9,10,11-octahydro-2H-cyclohepta[3,4]pyrazolo[1,5-a]pyrazin-2-yl)-3-fluoropyrazolo[1,5-a]pyridine-7-carbonitrile], the IC50 was less than 100 nM.

A further test has as its target T2, human TLR7 (Homo sapiens, UniProt Q9NYK1).
T2 sequence (Q9NYK1 27-1049): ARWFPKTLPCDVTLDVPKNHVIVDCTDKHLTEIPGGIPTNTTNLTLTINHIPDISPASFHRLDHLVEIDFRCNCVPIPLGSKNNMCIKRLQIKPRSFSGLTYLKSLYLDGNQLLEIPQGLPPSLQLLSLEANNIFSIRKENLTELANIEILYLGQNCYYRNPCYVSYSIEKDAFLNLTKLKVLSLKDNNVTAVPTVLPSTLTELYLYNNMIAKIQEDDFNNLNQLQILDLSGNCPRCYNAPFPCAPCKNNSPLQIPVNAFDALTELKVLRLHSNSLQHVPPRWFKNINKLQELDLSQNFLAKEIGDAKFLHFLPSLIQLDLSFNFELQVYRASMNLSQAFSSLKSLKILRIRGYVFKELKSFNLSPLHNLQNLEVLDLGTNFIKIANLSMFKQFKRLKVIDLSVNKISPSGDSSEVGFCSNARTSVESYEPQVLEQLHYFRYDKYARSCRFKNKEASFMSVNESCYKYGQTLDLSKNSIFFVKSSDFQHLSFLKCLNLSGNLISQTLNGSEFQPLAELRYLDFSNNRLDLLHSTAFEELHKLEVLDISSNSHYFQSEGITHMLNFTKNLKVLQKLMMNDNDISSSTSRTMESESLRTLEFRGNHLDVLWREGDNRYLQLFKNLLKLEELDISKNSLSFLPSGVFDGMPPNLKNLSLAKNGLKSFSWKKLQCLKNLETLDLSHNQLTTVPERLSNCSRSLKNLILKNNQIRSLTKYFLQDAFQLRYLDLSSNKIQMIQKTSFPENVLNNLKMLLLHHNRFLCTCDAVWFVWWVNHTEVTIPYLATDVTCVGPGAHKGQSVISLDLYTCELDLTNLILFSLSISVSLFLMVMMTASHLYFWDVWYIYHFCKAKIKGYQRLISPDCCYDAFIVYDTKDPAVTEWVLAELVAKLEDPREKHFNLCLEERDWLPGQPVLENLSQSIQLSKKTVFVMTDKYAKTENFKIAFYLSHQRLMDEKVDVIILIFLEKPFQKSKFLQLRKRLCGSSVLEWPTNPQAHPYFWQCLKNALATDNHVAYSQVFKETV
Put plainly: HEK-Blue hTLR7 SEAP reporter gene inhibition assay. The test is classed as cell-based. The following applies: HEK-Blue hTLR7 IC50 (µM). How it is done: as §1, §2
`C[C@@H]1CN(c2ccc(C#N)n3ncc(F)c23)Cc2c3c(nn21)CCN(Cc1cn[nH]c1)C3` [Example I-54, (R)-4-(2-((1H-Pyrazole-4-yl)methyl) -7-methyl-1,3,4,7,8,10-hexahydropyridine[4 ', 3 ': 3, 4]pyrazole [1,5-a]pyrazine-9 (2H) -yl) -3-fluoropyrazole [1,5-a] pyridine-7-nitrile]: the IC50 was less than 0.05 µM.

`C[C@@H]1CN(c2ccc(C#N)n3ncc(F)c23)Cc2c3c(nn21)CCN(CC(F)F)C3` [Example I-56, (R)-4-(2-(2,2-difluoroethyl) -7-methyl-1,3,4,7,8, 10-hexahydropyridine [4 ', 3 ': 3, 4]pyrazole [1,5-a]pyrazine-9 (2H) -yl) -3-fluoropyrazole [1,5-a] pyridine-7-nitrile] came in with an IC50 greater than 0.05 µM.

The test is the same for the next values; noted with them: hTLR7 HEK-Blue cells, TLR7 ligand Gardiquimod 10 µM, 20 hours, SEAP by Quanti-blue; class symbols; read-out: HEK-Blue hTLR7 IC50.
For the compound `C[C@@H]1CN(c2ccc(C#N)n3ncc(F)c23)Cc2c3c(nn21)CN(Cc1ncco1)[C@@H](C)C3` [Example I-133, 4-((4R,9S)-4,9-dimethyl-8-(oxazol-2-ylmethyl)-3,4,7,8,9,10-hexahydropyrido[3',4':3,4]pyrazolo[1,5-a]pyrazin-2(1H)-yl)-3-fluoropyrazolo[1,5-a]pyridine-7-carbonitrile], the IC50 was greater than 0.05 µM. On to `C[C@@H]1CN(c2ccc(C#N)n3ncc(F)c23)Cc2c3c(nn21)CCN(Cc1cnn(C)c1)C3` [Example I-67, (R)-3-Fluoro-4-(7-methyl-2-((1-methyl-1H-pyrazol-4-yl)methyl)-1,3,4,7,8,10-hexahydropyrido[4',3':3,4]pyrazolo[1,5-a]pyrazin-9(2H)-yl)pyrazolo[1,5-a]pyridine-7-carbonitrile], for which the IC50 was greater than 0.05 µM. Same read-out and setting: the figure for `C[C@@H]1CN(c2ccc(C#N)n3ncc(F)c23)Cc2c3c(nn21)CCC(C)(N)C3` (stereo partly drawn) [Example I-80, 4-((4R)-9-Amino-4,9-dimethyl-3,4,7,8,9,10-hexahydropyrazino[1,2-b]indazol-2(1H)-yl)-3-fluoropyrazolo[1,5-a]pyridine-7-carbonitrile] is greater than 0.05 µM; for `C[C@@H]1CN(c2ccc(C#N)n3ncc(F)c23)Cc2c3c(nn21)CN[C@H](CC#N)C3` [Example I-86, 4-((4R,9S)-9-(cyanomethyl)-4-methyl-3,4,7,8,9,10-hexahydropyrido[3',4':3,4]pyrazolo[1,5-a]pyrazin-2(1H)-yl)-3-fluoropyrazolo[1,5-a]pyridine-7-carbonitrile] it is less than 0.05 µM; for `CNC(=O)CN1Cc2nn3c(c2C[C@@H]1C)CN(c1ccc(C#N)n2ncc(F)c12)C[C@H]3C` [Example I-101, 2-((4R,9S)-2-(7-cyanide-3-fluoropyridox and [1,5-a]pyridox-4-base)-4,9-dimethyl-1,2,3,4,9, 10-hydropyridox [3 ', 4 ': 3, 4]pyrazolo [1,5-a]pyrazine-8 (7 H) -yl)-N-methyl acetamide] it is greater than 0.05 µM.

Consider `C[C@@H]1CN(c2ccc(C#N)n3ncc(F)c23)Cc2c3c(nn21)CN(CC(=O)N(C)C)[C@@H](C)C3` [Example I-102, 2-((4R,9S)-2-(7-cyano-3-fluoropyrazolo[1,5-a]pyridin-4-yl)-4,9-dimethyl-1,2,3,4,9,10-hexahydropyrido[3',4':3,4]pyrazolo[1,5-a]pyrazin-8(7H)-yl)-N,N-dimethylacetamide], for which the IC50 is less than 0.05 µM. On the same count and under the same terms, the figure for `C[C@@H]1CN(c2ccc(C#N)n3ncc(F)c23)Cc2c3c(nn21)CCN(C1CCC1)C3` [Example I-49, (R)-4-(2-cyclobutyl-7-methyl-1,3,4,7,8,10-hexahydropyrido[4',3':3,4]pyrazolo[1,5-a]pyrazin-9(2H)-yl)-3-fluoropyrazolo[1,5-a]pyridine-7-carbonitrile] is greater than 0.05 µM.

One may read the IC50 as the concentration that inhibits the measured activity by half.
